Measured values taken from patent US20040235919A1, “Phenylacetamido-thiazole derivatives, process for the preparation and their use as antitumor agents” (priority 2001, published 2004).

Biological target: cdk2/cyclin A (Homo sapiens, UniProt P24941)
Assay: Inhibition assay of cdk2/Cyclin A activity (SPA)
Type: biochemical
Conditions: tested against cdk2/cyclin A; read-out: inhibitory activity, expressed as IC50
Source text: When the number of compounds to be tested became consistent, the need for a fast and homogeneous screening assay was raised. Thus a method of assay based on the use of the SPA technology (Amersham Pharmacia Biotech) was set up. The assay consists of the transfer of radioactivity labelled phosphate moiety by the kinase to a biotinylated substrate. The resulting 33P-labelled biotinylated product is allowed to bind to streptavidin-coated SPA beads (biotin capacity 130 pmol/mg), and light emitted was measured in a scintillation counter.
Inhibition Assay of cdk2/Cyclin A Activity
Kinase reaction: 4 microM in house biotinylated histone H1 (Sigma # H-5505) substrate, 10 microM ATP (0.1 microCi P^33gamma-ATP), 4.2 ng cdk2/Cyclin A complex, inhibitor in a final volume of 30 microl buffer (TRIS HCl 10 mM pH 7.5, MgCl2 10 mM, DTT 7.5 mM+0.2 mg/ml BSA) were added to each well of a 96 U bottom. […]
After 20 min. incubation for substrate capture, 100 microl 5M CsCl were added to allow statification of beads to the top of the plate and let stand 4 hours before radioactivity counting in the Top-Count instrument
IC50 determination: inhibitors were tested at different concentrations ranging from 0.0015 to 10 microM. Experimental data were analyzed by the computer program GraphPad Prizm using the four parameter logistic equation: […]

SMILES | IC50 [nM]
CC(=O)Nc1ccc([C@H](C)C(=O)Nc2ncc(C(C)C)s2)cc1 [(2S)-2-[4-(acetylamino)phenyl]-N-(5-isopropyl-1,3-thiazol-2-yl)propanamide] | 11
CC(=O)Nc1ccc(CC(=O)Nc2ncc(C(C)C)s2)cc1 [N-(5-isopropyl-1,3-thiazol-2-yl)-2-[4-(acetylamino)phenyl]acetamide] | 110
